Data from US5298616A, “Sulfated O-polysaccharide-trehaloses” (Hoffmann-La Roche Inc., priority 1990, dated 1994).

What was measured:
[1] = molecular target: T1, Factor Xa (Bos taurus, UniProt P00743); test: anti-Xa Clotting Assay; format: biochemical; settings: concentration which doubles the coagulation time vs control; citrated plasma
Experimental: (§1) The blood coagulation-inhibiting activity was determined as follows:
anti-Xa Clotting Assay: 25 μl of citrated plasma having various concentrations of test compound are mixed with 75 μl of Factor Xa (Diagnostic Reagents, Thame, Oxon, Great Britain) diluted 1:100 in 0.63% citrate buffer (pH 7.3) which contains 41 mM imidazole, 82 mM NaCl and 0.1% albumin. After warming to 37° C. for 2 minutes 200 μl of a 1:1 mixture of Factor X Deficient Plasma (Diagnostic Reagents) and Platelet Substitute (Diagnostic Reagents) are added and the mixture is incubated at 37° C. for 20 seconds. After the addition of 100 μl of prewarmed 50 mM calcium chloride solution the coagulation time is measured in a Fibrometer.
(§2) The activity of the test compound is given as the IC50, which is that concentration [μg/ml] which leads to a coagulation time which is double the control value.

[2] = molecular target: T1, Factor Xa; test: Inhibition of Factor Xa in the Chromogenic Substrate Assay; format: biochemical; settings: amidolytic activity reduced by 50% vs plasma control; S-2222
Experimental: as §1
Inhibition of Thrombin or Factor Xa in the Chromogenic Substrate Assay (Teien et al., Thrombosis Research 10, 399-410 (1977)): The test was performed in a Cobas-Bio centrifugal automatic spectrophotometer. The buffer solution used consisted of 50 mM Tris buffer, 180 mM NaCl, 7.5 mM EDTA Na2, 1% PEG 6000 and 0.02% Tween 80, pH 8.4. The sample consisted of 50 μl of buffer, 30 μl of anti-thrombin Ill (1 U/ml), Kabi Diagnostics) and 20 μl of plasma which contained various concentrations of test compounds. 30 μl of sample solution and 20 μl of water with 180 μl of thrombin were added to the test cuvette in the automatic analyzer. After incubation at 37° C. for 240 seconds 60 μl of S-2238 (H-D-Phe-Pip-Arg-NH.pNA, Kabi Diagnostics, Mondal, Sweden, 0.75 mM in water) and 20 μl of water were added. The liberation of pNA (p-nitroaniline) was followed during 60 seconds at 405 nm in 10 second intervals in comparison to water as the blank. The inhibitory activity is given as the IC50, which is the concentration [μg/ml] at which the amidolytic activity of thrombin is reduced by 50% in comparison to the plasma control value.
The inhibition of Factor Xa was measured in the same manner using a solution of Factor Xa (2.8 nkat/ml and 2 mM S-2222 (Bz-CO-Ile-Glu-Arg-NH.pNA, Kabi Diagnostics) in water in place of thrombin and, respectively, S-2238.

[3] = test system: rat smooth muscle cells; test: anti-proliferative activity in cell cultures; format: cell-based; settings: for Anti-proliferative activity % inhibition: 100 μg/ml test substance, 7 days, vs non-inhibited growth
Experimental: The anti-proliferative activity of the substances was determined in cell cultures as follows: rat smooth muscle cells (cultivated in DMEM with 10% FCS at 37° C. and 5% CO2) were seeded in 24 well cell culture plates with a density of 8×10^3 cells/well. After 4 hours the number of adhered cells was determined and the substances to be tested ([…]) were added. Cells to which no substance was added served as a comparison and heparin (100 μg/ml) served as a positive control. The cells were incubated for 7 days and then the cell number was determined. The antiproliferative activity of the individual substances was calculated as the % inhibition in comparison to non-inhibited growth: [formula] wherein cell number(d=O) cell number after 4 h cell number(-)=cell number to which no test
substances was added, after 7 days.
cell number(inhib)=cell number with
100 μg/ml of the test substance.

[4] = test system: citrated human plasma; test: aPTT (activated partial thromboplastin time) Test; format: biochemical; settings: concentration which doubles the coagulation time vs control
Experimental: as §1
aPTT (activated partial thromboplastin time) Test (see Walenga et al., CRC Critical Reviews in Laboratory Sciences 22 (4) 361-389 (1986)): 100 μl of citrated human plasma, which contains various concentrations of test compound, is incubated at 37° C. for 8 minutes with 100 μl of Activated Thrombofax (Ortho Diagnostics, Raritan, N.J., U.S.A.). 100 μl of prewarmed 25 mM calcium chloride solution are then added and the coagulation time is measured in a Fibrometer Coagulation Timer (Becton Dickinson, Basle).
as §2

[5] = molecular target: thrombin (Homo sapiens, UniProt P00734); test: Inhibition of Thrombin in the Chromogenic Substrate Assay; format: biochemical; settings: amidolytic activity reduced by 50% vs plasma control; anti-thrombin III, S-2238
Experimental: as §1
The buffer solution used consisted of 50 mM Tris buffer, 180 mM NaCl, 7.5 mM EDTA Na2, 1% PEG 6000 and 0.02% Tween 80, pH 8.4. The sample consisted of 50 μl of buffer, 30 μl of anti-thrombin Ill (1 U/ml), Kabi Diagnostics) and 20 μl of plasma which contained various concentrations of test compounds. 30 μl of sample solution and 20 μl of water with 180 μl of thrombin were added to the test cuvette in the automatic analyzer. […] The liberation of pNA (p-nitroaniline) was followed during 60 seconds at 405 nm in 10 second intervals in comparison to water as the blank.

T1 sequence (P00743 234-492 limits assumed): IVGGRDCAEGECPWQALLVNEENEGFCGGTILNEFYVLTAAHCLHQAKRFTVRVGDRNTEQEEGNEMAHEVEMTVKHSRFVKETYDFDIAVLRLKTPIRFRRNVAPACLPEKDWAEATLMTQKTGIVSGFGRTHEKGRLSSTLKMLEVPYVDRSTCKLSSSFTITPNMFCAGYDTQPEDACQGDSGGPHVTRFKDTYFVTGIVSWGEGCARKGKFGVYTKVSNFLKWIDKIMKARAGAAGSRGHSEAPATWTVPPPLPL

| Substance | Anti-coagulation activity IC50, Coagulation inhibition Xa [1] [µg/mL] | Anti-coagulation activity IC50, Amidolytic activity F.Xa [2] [µg/mL] | Anti-coagulation activity IC50, Coagulation inhibition aPTT [4] [µg/mL] | Anti-coagulation activity IC50, Amidolytic activity Thrombin [5] [µg/mL] | anti-proliferative activity ([3]; result in words) | Anti-proliferative activity % inhibition [3] [%] |
| --- | --- | --- | --- | --- | --- | --- |
| sulphated 4-O -(β-D-maltotriosyl)-α,α-D-trehalose [Example 4C] | 32 | > 1000 | 11 | > 1000 |  | 64 |
| sulphated 4-O-(α-D-maltotriosyl)-α,α-D-trehalose [Example 1G] | 31 | 960 | 11 | > 1000 |  | 57 |
| sulphated 4-O-(β-D-glucopyranosyl) -α,α-D-trehalose [Example 2C] | 115 | > 1000 | 40 | > 1000 |  | 38 |
| sulphated 4-O-(β-D-maltosyl)-α,α-D-trehalose [Example 3C] | 33.5 | > 1000 | 12 | > 1000 |  | 59 |

Further lines, with some results ahead:

| Anti-coagulation activity IC50, Coagulation inhibition Xa [1] [µg/mL] | Anti-coagulation activity IC50, Amidolytic activity F.Xa [2] [µg/mL] | Anti-coagulation activity IC50, Coagulation inhibition aPTT [4] [µg/mL] | Anti-coagulation activity IC50, Amidolytic activity Thrombin [5] [µg/mL] | Substance | anti-proliferative activity ([3]; result in words) | Anti-proliferative activity % inhibition [3] [%] |
| --- | --- | --- | --- | --- | --- | --- |
| 0.6 | 2.7 | 1.2 | 1.9 | Heparin [reference compound] | anti-proliferatively active |  |
| 34 | > 1000 | 13.5 | > 1000 | sulphated 4,4'-bis -O-(β-D-glucopyranosyl)-α,α-D-trehalose [Example 7C] |  | 49 |
| 28.5 | 900 | 14.5 | > 1000 | sulphated 4,4'-bis-O-(β-D-maltosyi)-α,α-D-trehalose [Example 6D] |  | 67 |
| 69 | > 1000 | 33 | > 1000 | sulphated 4-O-(β-D-cellobiosyl)-α,α-D-trehalose [Example 5C] |  | 39 |
